Square brackets hold non-standard residues; d marks the D form. Peptide text beside a SMILES is read from it. NMeF = CN[C@@H](Cc1ccccc1)C(=O)O
Key:
[1] = test system: inflammatory pain in mice; assay: Inflammatory pain model (Carrageenan or CFA); format: in vivo, mouse
Experimental: Inflammatory pain in mice was measured using a hot stinging apparatus and an electronic Von Frey tenderness instrument, and the basal pain threshold of normal mice was firstly determined. Then 20 μl of 2% Carrageenan solution or CFA solution was injected subcutaneously into the mouse paw. The thermal and mechanical pain sensitivity value values of the injected paw in mice were tested after 24 hours (Carrageenan) or 4 days (CFA), and then compound 9 was administered into lateral ventricle, intrathecally or subcutaneously, and the pain threshold at different time points after administration were recorded.
(§1) The experimental data were expressed as mean±standard error (Means±S.E.M.), and the data for differences between groups treated with different drug concentrations were analyzed by one-way ANOVA (Bonferroni test in one-way ANOVA) for statistics and analysis, ***P<0.001 represents that there was a significant difference between the pain threshold value of the drug-treated group and that of the saline group.

[2] = test system: visceral pain induced by intraperitoneal injection of acetic acid solution in mice; assay: Acetic acid writhing visceral pain model; format: in vivo, mouse
Experimental: The mice were placed in a transparent polymethyl methacry late box (20×20×30 cm) and adapted to the environment for 10-15 min; after the adaptation, compound 9 was administered intrathecally, intraperitoneally or subcutaneously to the mice. After 5 min, the mice were intraperitoneally injected with 10 ml/kg of 0.6% acetic acid solution, 5 min. after the intraperitoneal injection of acetic acid solution, the writhing response of the mice was recorded for 10 min. The mice developed characteristic reactions such as twisting of the trunk, concave in the abdomen, elevation of the buttocks and extension of the hind limbs, which were recorded as a writhing reaction.
as §1, with “experimental data was expressed by MPE (maximum possible effect), MPE (%)=100×[(the number of writhing bodies in the physiological saline group− the number of writhing bodies in the drug group)/the number of writhing bodies in the physiological saline group]. The relevant MPE” for “experimental”, “(Means±S.E.M.),” for “(Means±S.E.M.), and”, “MPE” for “pain threshold”

[3] = test system: CCI-induced neuralgia in mouse; assay: Analgesic tolerance and cross-tolerance in CCI-induced neuralgia; format: in vivo
Experimental: CCI-induced neuralgia in mouse was detected using a PL-200 thermal tingling instrument and an electronic Von Frey tenderness instrument. The thermal pain threshold of one group of normal mice and the mechanical pain threshold of another group of normal mice were first determined. The mice were then anesthetized with sodium pentobarbital 80 mg/kg mouse body weight) and the mice were fixed in the prone position. The right sciatic nerve was exposed and 3 mild ligation rings were made around the sciatic nerve using a 4-0 chromic catgut, 1 mm intervals. The ligation intensity is preferably a slight tremor in the right hind leg. On the 10th day after surgery, the thermal pain sensitivity value and mechanical pain sensitivity value of the right hind paw of the two groups of mice were determined. Compound 9 or morphine was then administered subcutaneously for seven consecutive days, and compound 9 was given to mice in the morphine group on day 8. The thermal tingling and mechanical pain thresholds at different time points after administration were recorded.
The experimental data were expressed as mean±standard error (Means±S.E.M.). Data for differences between groups treated with the same drug were analyzed by one-way ANOVA (Tukey HSD test of one-way ANOVA) for statistics and analysis, *P<0.05. **P<0.01, ***P<0.001 indicates a significant difference between the pain threshold of the drug-treated group and the pain threshold after the First day of administration.

[4] = subcutaneous, seven consecutive days

## C[C@@H](NC(=O)[C@@H](N)Cc1ccc(O)cc1)C(=O)NCC(=O)N(C)[C@@H](Cc1ccccc1)C(=O)NCC(=O)N1CCC[C@H]1C(=O)N[C@@H](CCC(N)=O)C(=O)N[C@@H](CCCNC(=N)N)C(=O)N[C@@H](Cc1ccccc1)C(N)=O [Compound 9, Tyr-D-Ala-Gly-NMe-Phe-Gly-Pro-Gln-Arg-Phe-NH2] (H-Y[dA]G[NMeF]GPQRF-NH2)
[1]; intrathecal (FIG. 15: carrageenan-induced)
  analgesic ED50 value, inflammatory pain: 2.98 (2.50-3.54) pmol
[1]; lateral ventricle (FIG. 14: CFA-induced)
  analgesic ED50 value, inflammatory pain: 5.20 (2.06-13.10) pmol
[1]; subcutaneous (FIG. 16: carrageenan-induced)
  analgesic ED50 value, inflammatory pain: 3.24 (2.81-3.74) mg/kg
[2]; intraperitoneal (i.p.)
  ED50 value (95% confidence interval): 0.721 (0.594 to 0.875) mg/kg
[2]; intrathecal (i.t.)
  ED50 value (95% confidence interval): 0.657 (0.595 to 0.727) pmol
[2]; subcutaneous (s.c.)
  ED50 value (95% confidence interval): 0.789 (0.702 to 0.887) mg/kg
[3]; morphine-tolerant mice given compound 9 s.c. on day 8
  cross-tolerance between compound 9 and morphine: no cross-tolerance
[3]; [4]
  analgesic tolerance on continuous injection, mechanical pain sensitivity: not significantly different from that obtained in the first day
  analgesic tolerance on continuous injection, thermal sensitivity pain: not significantly different from that obtained in the first day
